Patent US8129527B2, “Analogs of dehydrophenylahistins and their therapeutic use” (Nereus Pharmacuticals, Inc., priority 2006, dated 2012)
pEC50, pIC50: −log10 of the molar value. Like-named read-outs stand apart in the source and are kept apart here.

Experiments:
[1] = test system: HL-60/MX-2 (Mitoxantrone-Resistant); experiment: Drug resistant cell line pair, cytotoxicity (Example 10B); type: cell-based, human; details: Homo sapiens, HL60/MX2; HL-60 Resistant (HL-60/MX-2)
Excerpt: (§1) 2) Human Acute Promyelocytic Leukemia Cell Line Pair: HL-60 (Mitoxantrone-Sensitive) and HL-60/MX-2 (Mitoxantrone-Resistant)

[2] = target: Lyn (mouse) (Mus musculus, UniProt P25911); details: ATP 10 μM
Lyn (mouse), sequence (P25911 whole entry): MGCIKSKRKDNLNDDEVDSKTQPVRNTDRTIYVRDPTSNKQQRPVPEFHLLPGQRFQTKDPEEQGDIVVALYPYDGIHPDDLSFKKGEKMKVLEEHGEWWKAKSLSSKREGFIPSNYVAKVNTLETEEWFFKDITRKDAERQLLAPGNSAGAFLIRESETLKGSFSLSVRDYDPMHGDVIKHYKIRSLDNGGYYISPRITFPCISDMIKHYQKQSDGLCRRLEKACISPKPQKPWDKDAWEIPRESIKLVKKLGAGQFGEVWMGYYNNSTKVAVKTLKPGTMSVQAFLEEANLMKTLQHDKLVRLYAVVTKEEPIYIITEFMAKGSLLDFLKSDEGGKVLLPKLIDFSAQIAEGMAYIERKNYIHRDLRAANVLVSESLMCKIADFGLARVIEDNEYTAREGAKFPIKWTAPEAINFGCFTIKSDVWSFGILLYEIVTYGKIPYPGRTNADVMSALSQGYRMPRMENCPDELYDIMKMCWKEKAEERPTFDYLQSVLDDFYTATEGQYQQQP

[3] = test system: HT-29 human colon cells; experiment: Tumor cytotoxicity assay, resazurin fluorescence, 48 h (Example 6); type: cell-based; details: Homo sapiens
[4] = test system: MES-SA/Dx5 (Taxol Resistant) human uterine sarcoma; experiment: Drug resistant cell line pair, cytotoxicity (Example 10B); type: cell-based; details: Homo sapiens, MES-SA/Dx5, MES-SA/DX5 Resistant, CsA Pretreat; Studies II-III in separate lines
Excerpt: (§2) 1) Human Uterine Sarcoma Tumor Cell Line Pair: MES-SA (Taxol Sensitive) and MES-SA/Dx5 (Taxol Resistant).

[5] = test system: MES-SA (Taxol Sensitive) human uterine sarcoma; experiment: as above; type: cell-based; details: Homo sapiens, MES-SA, CsA Pretreat, Studies II-III in separate lines
Excerpt: as §2

[6] = test system: bovine brain microtubule protein; experiment: Tubulin polymerization assay, turbidity (Example 21); type: biochemical; details: 5 μM in 1% DMSO
Method: Polymerization of bovine brain microtubule protein (Cytoskeleton, Inc., Denver, Colo.) was monitored by an increase in turbidity at 37° C. in microtubule buffer (80 mM PIPES, pH 6.8, 1 mM MgCl2, 1 mM EGTA, 1 mM GTP, 10% glycerol). […] Turbidity was measured as an increase in optical density at 340 nm with a thermo-controlled spectrophotometer (model 680XR microplate Reader™, Bio-Rad Laboratories).

[7] = target: CDK1/Cyclin B (human) (Homo sapiens, UniProt P06493); experiment: biochemical
CDK1/Cyclin B (human), sequence (P06493 whole entry): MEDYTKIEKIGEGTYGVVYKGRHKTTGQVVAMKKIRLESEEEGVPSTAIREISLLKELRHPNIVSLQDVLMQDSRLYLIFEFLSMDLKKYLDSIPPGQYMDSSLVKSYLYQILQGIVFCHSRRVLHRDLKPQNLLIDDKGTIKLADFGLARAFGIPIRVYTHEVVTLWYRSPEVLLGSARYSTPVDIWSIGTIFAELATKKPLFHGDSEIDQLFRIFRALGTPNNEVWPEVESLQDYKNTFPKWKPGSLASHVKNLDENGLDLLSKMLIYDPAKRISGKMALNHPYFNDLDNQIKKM
CDK1/Cyclin B (human), sequence (P14635 whole entry partner): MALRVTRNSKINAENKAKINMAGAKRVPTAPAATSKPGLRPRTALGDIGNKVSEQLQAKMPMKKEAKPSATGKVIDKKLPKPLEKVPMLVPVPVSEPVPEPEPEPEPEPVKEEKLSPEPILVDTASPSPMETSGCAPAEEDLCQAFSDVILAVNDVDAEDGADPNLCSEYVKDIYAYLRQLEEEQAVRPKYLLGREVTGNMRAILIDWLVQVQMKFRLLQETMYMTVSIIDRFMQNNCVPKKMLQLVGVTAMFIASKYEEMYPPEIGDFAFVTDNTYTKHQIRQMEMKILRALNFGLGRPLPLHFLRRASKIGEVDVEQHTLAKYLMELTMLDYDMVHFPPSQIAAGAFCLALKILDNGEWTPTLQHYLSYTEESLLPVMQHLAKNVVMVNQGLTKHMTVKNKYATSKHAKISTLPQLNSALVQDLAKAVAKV

[8] = test system: HL-60 (Mitoxantrone-Sensitive) human acute promyelocytic leukemia; experiment: Drug resistant cell line pair, cytotoxicity (Example 10B); type: cell-based; details: HL-60 Sensitive
Excerpt: as §1

[9] = test system: PARP in Jurkat cells; experiment: Cleavage of poly(ADP-ribose)polymerase (PARP), western blotting; type: cell-based, human; details: 100 nM, 10 hours after exposure
Excerpt: In order to assess the ability of these compounds to induce apoptosis in Jurkat cells, cleavage of poly(ADP-ribose)polymerase (PARP) was monitored. […] The cleavage of PARP generates a stable 89 kDa product, and this process can be easily monitored by western blotting.

[10] = test system: Jurkat cells; experiment: cells; type: cell-based; details: Jurkat cells
[11] = test system: Jurkat cells (human T cell leukemia line); experiment: DNA fragmentation (DNA laddering); type: cell-based
Excerpt: A late stage characteristic of apoptosis is internucleosomal DNA cleavage that results in a distinctive ladder pattern that can be visualized by gel electrophoresis.

[12] = test system: HT29 (human colon tumor); experiment: Tumor panel screen cytotoxicity (Example 10A); type: cell-based
Excerpt: (§3) Cells were maintained at subconfluent densities in their respective culture media.

[13] = test system: CCD-27sk (normal human fibroblast); experiment: Tumor panel screen cytotoxicity (Example 10A); type: cell-based; details: CCD-27sk Fibroblast
Excerpt: as §3

[14] = test system: NCI-H292 (human non-small cell lung tumor); experiment: Tumor panel screen cytotoxicity (Example 10A); type: cell-based; details: maximum cytotoxic effect
Excerpt: as §3

[15] = test system: B16-F10 (murine melanoma); experiment: Tumor panel screen cytotoxicity (Example 10A); type: cell-based
Excerpt: as §3

[16] = test system: PC3 (human prostate tumor); experiment: Tumor panel screen cytotoxicity (Example 10A); type: cell-based; details: PC-3 Prostate
Excerpt: as §3

[17] = test system: MDA-MB-231 (human breast tumor); experiment: Tumor panel screen cytotoxicity (Example 10A); type: cell-based; details: MDA-MB-231 Breast
Excerpt: as §3

[18] = test system: OVCAR-3 (human ovarian tumor); experiment: Tumor panel screen cytotoxicity (Example 10A); type: cell-based; details: OVCAR-3 Ovary
Excerpt: as §3

[19] = test system: HuVEC; experiment: Action on microtubule function, α-tubulin staining; details: 2 μM, thirty minutes exposure
[20] = test system: PC-3 prostatic adenocarcinoma cells; experiment: Tumor cytotoxicity assay, resazurin fluorescence, 48 h (Example 6); type: cell-based, human; details: read-out: EC50 (nM) PC-3
Method: 10× concentrated serial dilutions of the two compounds were prepared in appropriate culture medium for final concentrations ranging from 2.0×10^−5 M to 2.0×10^−10 M. Ten μl volumes of the 10× serial dilutions were added to the test wells in triplicate and the plates returned to the incubator for 48 hours.
Following 48 hours of drug exposure 10 μl of 0.2 mg/ml resazurin (obtained from Sigma-Aldrich Chemical Co.) in Mg^2+, Ca^2+ free PBS was added to each well and the plates were returned to the incubator for 3-4 hours. […] Resazurin dye without cells was used to determine the background, which was subtracted from the data for all experimental wells. The data were analyzed using Prism software (GraphPad Software).
PC-3, a human prostate adenocarcinoma, was maintained in F12K complete medium (F12K medium supplemented with 10% FBS; 2 mM Glutamine; 1% HEPES; and Pen/Strep at 100 IU/ml and 100 µg/ml, respectively).

[21] = test system: HT-29 human colon tumor; experiment: HT-29 Human Colon Tumor Xenograft Model; type: in vivo
Procedure, shortened: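 Nude mice bearing s.c. trocar-implanted HT-29 fragments were grouped at 5 mm×5 mm tumours and dosed i.p.; in combinations, reference chemotherapy was given 15-30 min before compound. Caliper measurements twice weekly were converted to tumour weight as (W^2×L)/2, with study end when control tumours averaged 1000 mg.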

Question: Which results are given for `CC(C)(C)c1[nH]cnc1/C=c1\[nH]c(=O)/c(=C/c2ccccc2)[nH]c1=O` [KPU-2, tBu-dehydro-PLH]?
Answer: pIC50 [1]: 8.09; pIC50 [2]: 4.95; pEC50 ([3]; HT-29, Table 6, proliferation of HT-29 cells): 7.89; pEC50 ([3]; HT-29, Table 9, summary of modification at the o-position, HT-29): 7.32; pEC50 ([3]; HT-29, Table 10, summary of modification at the m-position, HT-29): 7.32; EC50 ([3]; HT-29, read-out: EC50 (nM) HT-29, Table 2): 13 nM; EC50 ([3]; HT-29, read-out: EC50 (nM) HT-29, Table 3): 13 nM; pEC50 ([3]; HT-29, Table 5, synthetic potent dehydroPLH derivatives): 7.89; pIC50 [4]: 7.42; pIC50 [5]: 7.56; tubulin polymerization [6]: inhibit tubulin polymerization; pIC50 [7]: 5.00; pIC50 [8]: 8.19; cleavage of PARP [9]: induced cleavage of PARP; Cytotoxicity Efficacy % Cell Death [10]: 94%; concentration inducing DNA laddering [11]: 1 nM; % Cytotoxicity Mean ([12]; HT-29 Colon, maximum cytotoxic effect): 82.5%; pIC50 ([12]; Homo sapiens, HT-29 Colon): 8.01; potency on the HT-29 tumor cell line ([12]; in words): low nanomolar range; % Cytotoxicity Mean ([13]; maximum cytotoxic effect): 64.3%; pIC50 ([13]; Homo sapiens): 8.04; % Cytotoxicity Mean [14]: 70.5%; pIC50 ([15]; Mus musculus): 7.43; % Cytotoxicity Mean ([15]; maximum cytotoxic effect): 71.8%; pIC50 ([16]; Homo sapiens): 7.87; % Cytotoxicity Mean ([16]; maximum cytotoxic effect): 60.3%; pIC50 ([17]; Homo sapiens): 7.86; % Cytotoxicity Mean ([17]; maximum cytotoxic effect): 56.7%; pIC50 ([18]; Homo sapiens): < 4.70; % Cytotoxicity Mean ([18]; maximum cytotoxic effect): 45.8%; microtubule depolymerization in HuVEC cells [19]: induced microtubule depolymerization; EC50 ([20]; Table 2): 1 nM; EC50 ([20]; Table 3): 1 nM; Comments (combination with CPT-11) ([21]; NPI compound + CPT-11 100 ip qwx3, study and dose as in the line): Synergy; NPI-Compound Result TGI % ([21]; Study 2139, monotherapy 7.5 mg/kg ip q3dx5): No Effect; NPI-Compound Result TGI % ([21]; Study 2164, monotherapy 7.5 mg/kg ip q3dx5): No Effect; NPI-Compound Result TGI % ([21]; Study 2164, monotherapy 7.5 mg/kg ip qdx5): No Effect; NPI-Compound Result TGI % ([21]; Study 2288, monotherapy 10→7.5 mg/kg ip q3dx5): No Effect; Exceed NCI Criterion (TGI ≧ 58%) ([21]; which treatment group exceeds the criterion, NPI compound, CPT-11 100 ip qwx3 or combination, study and dose as in the line): Combination
